From patent publication US5698411A, “Method for determining activity of enzymes in metabolically active whole cells” (priority 1995, dated 1997)

Tests used:
[1] = system: metabolically active whole cell; assay: substrate panel in normals and HIV + patients, TB infection (Table 4); assay type: cell-based, human; parameters: unit not given here
Procedure: A panel of assay compounds are assembled consisting of Ala-aminopeptidase and Lys-aminopeptidase, Dipeptidyl peptidase IV (Ala-Ala)2 rhodamine 110 and Cathepsin D to indicate possible TB infection in AIDS related cases.
A panel Of enzymatic substrates is performed consisting of Ala-aminopeptidase and Lys-aminopeptidase, Dipeptidyl peptidase IV (Ala-Ala)2 rhodamine 110 and Cathepsin D to indicate possible TB infection in AIDS related cases.

lymphocytes = assay: aberrant enzyme activities in febrile children, lymphocytes (Table 7); assay type: cell-based, human
monocytes = assay: aberrant enzyme activities in febrile children, monocytes (Table 7); assay type: cell-based, human
granulocytes = assay: aberrant enzyme activities in febrile children, granulocytes (Table 7); assay type: cell-based, human
[2] = system: acute lympholytic Ficoll prepared lymphocytes; assay: amino peptidase activity in acute lymphocytic leukemia lymphocytes; assay type: cell-based, human; details: FIG. 4B
Description: The cell's ability to fight off an invader lies within its genetics and therefore cell type. The "readiness" however of any genetically capable group of cells to defend is different. A measure of this "readiness" is manifest in the available proteolytic enzymes contained within vacuoles or on the surface of the cell. The assay compound hydrolysis rate increases with increased mass of enzymes giving a picture of immune competence both in number of cells and activity level. […] Images were generated using Universal Imaging.

aminopeptidase [3] = details: cited from earlier work
aminopeptidase [4] = assay: inhibition of aminopeptidase reaction with (H-L-Asp)2 rhodamine 110; assay type: biochemical; details: approximately 10 mM; substrate (H-L-Asp)2 rhodamine 110
Description: The chemical nature of the buffer is important to the reactivity Of the assay compound with the cellular enzymes. […] In addition, the assay compound hydrolysis by the enzyme occurs at an increased rate of reaction.

[5] = system: metabolically active cell; details: even when buffered
Procedure: Viability is confirmed with Trypan Blue or PI-FDA over a time period of 10 seconds to 30 minutes. If the viability of the cell sample at between one and three million cells/mL decreases by 10% then the salt of the compound is rejected and another salt of the assay compound is synthesized.

cathepsin B = details: cited from earlier work
dipeptide reagent = assay: effect of sodium chloride on dipeptide reagent; assay type: biochemical; details: 7 mM, pH 6.5 to 8.7
Description: Inhibitors and poisons (or toxins) are components that can be added to reduce the activity of non-targeted enzymes that provide competing reactions for the leaving group. Inhibitors are usually very selective for a particular enzyme. For example, EDTA only works with enzymes requiring Ca^+2, Mg^+2 and some other metals. […] Preferred inhibitors for particular enzymes are included in Table 1.

For `CC(C)C[C@H](N)C(=O)Nc1ccc2c(c1)Oc1cc(NC(=O)[C@@H](N)CC(C)C)ccc1C21OC(=O)c2ccccc21` [LEU, (Leu)2 Rho 110], the “MEAN DELTA FL” value ([1]; HIV + PATIENTS) was 130.5, the “MEAN DELTA FL” value ([1]; NORMALS) was 259.6 and the “aberrant enzyme activity, LYMPHS” value (lymphocytes; P88 Enteritis) was “+ (>0.25 Increase over normal range)”. The “aberrant enzyme activity, LYMPHS” value (lymphocytes; P89 Viral Stomatitis) was “+ (>0.25 Increase over normal range)”, the “aberrant enzyme activity, LYMPHS” value (lymphocytes; P92 Adenitis) was “+ (>0.25 Increase over normal range)” and the “aberrant enzyme activity, LYMPHS” value (lymphocytes; P95 Viral Syndrome) was “+ (>0.25 Increase over normal range)”. For the same molecule, the “aberrant enzyme activity, LYMPHS” value (lymphocytes; P96 Viral Syndrome) was “+ (>0.25 Increase over normal range)”, the “aberrant enzyme activity, LYMPHS” value (lymphocytes; P97 Pyelonephritis) was “.smallcircle” and the “aberrant enzyme activity, LYMPHS” value (lymphocytes; P99 Viral Syndrome) was “.smallcircle”. The “aberrant enzyme activity, LYMPHS” value (lymphocytes; P101 Fever -- Unknown Origin) was “+ (>0.25 Increase over normal range)”, the “aberrant enzyme activity, LYMPHS” value (lymphocytes; P102 UTI) was “.smallcircle” and the “aberrant enzyme activity, LYMPHS” value (lymphocytes; P103 Viral Syndrome) was “+ (>0.25 Increase over normal range)”. The “aberrant enzyme activity, MONOS” value (monocytes; P88 Enteritis) was “+ (>0.25 Increase over normal range)”, the “aberrant enzyme activity, MONOS” value (monocytes; P89 Viral Stomatitis) was “+ (>0.25 Increase over normal range)” and the “aberrant enzyme activity, MONOS” value (monocytes; P92 Adenitis) was “+ (>0.25 Increase over normal range)”. The “aberrant enzyme activity, MONOS” value (monocytes; P95 Viral Syndrome) was “+ (>0.25 Increase over normal range)”, the “aberrant enzyme activity, MONOS” value (monocytes; P96 Viral Syndrome) was “+ (>0.25 Increase over normal range)” and the “aberrant enzyme activity, MONOS” value (monocytes; P97 Pyelonephritis) was “+ (>0.25 Increase over normal range)”. The “aberrant enzyme activity, MONOS” value (monocytes; P99 Viral Syndrome) was “.smallcircle”, the “aberrant enzyme activity, MONOS” value (monocytes; P101 Fever -- Unknown Origin) was “+ (>0.25 Increase over normal range)” and the “aberrant enzyme activity, MONOS” value (monocytes; P102 UTI) was “.smallcircle”. For the same molecule, the “aberrant enzyme activity, MONOS” value (monocytes; P103 Viral Syndrome) was “+ (>0.25 Increase over normal range)”, the “aberrant enzyme activity, GRANS” value (granulocytes; P88 Enteritis) was “+ (>0.25 Increase over normal range)” and the “aberrant enzyme activity, GRANS” value (granulocytes; P89 Viral Stomatitis) was “+ (>0.25 Increase over normal range)”. For the same molecule, the “aberrant enzyme activity, GRANS” value (granulocytes; P92 Adenitis) was “+ (>0.25 Increase over normal range)”, the “aberrant enzyme activity, GRANS” value (granulocytes; P95 Viral Syndrome) was “+ (>0.25 Increase over normal range)” and the “aberrant enzyme activity, GRANS” value (granulocytes; P96 Viral Syndrome) was “+ (>0.25 Increase over normal range)”. For the same molecule, the “aberrant enzyme activity, GRANS” value (granulocytes; P97 Pyelonephritis) was “.smallcircle”, the “aberrant enzyme activity, GRANS” value (granulocytes; P99 Viral Syndrome) was “.smallcircle” and the “aberrant enzyme activity, GRANS” value (granulocytes; P101 Fever -- Unknown Origin) was “+ (>0.25 Increase over normal range)”. The “aberrant enzyme activity, GRANS” value (granulocytes; P102 UTI) was “.smallcircle”, the “aberrant enzyme activity, GRANS” value (granulocytes; P103 Viral Syndrome) was “+ (>0.25 Increase over normal range)” and the amino peptidase activity [2] was “lost their enzymatic activity”.

For `CC(C)C[C@H](NC(=O)[C@@H](O)[C@H](N)Cc1ccccc1)C(=O)O` [bestatin], the inhibition of aminopeptidase (aminopeptidase [3]) is listed as “selectively inhibits aminopeptidase”.

For `[Ca+2].[Cl-].[Cl-]` [calcium chloride], the “inhibitory to the enzyme reaction” value (aminopeptidase [4]) was “inhibitory”.

For `Br.Cc1ncc(C)n2nc(CCc3nc(-c4ccccc4)cn3C)nc12` [hydrogen bromide (HBr), hydrogen bromide], the cell killing [5] was “kills cells”.

In the case of `CC(=O)N[C@@H](CC(C)C)C(=O)N[C@@H](CC(C)C)C(=O)N[C@H](C=O)CCCNC(=N)N` [leupeptin], the “inhibition of cathepsin B” value (cathepsin B) is listed as “selectively inhibits cathepsin B”.

For `[Cl-].[Na+]` [sodium chloride], the “inhibitory effect on dipeptide reagent” value (dipeptide reagent) was “slightly inhibitory effect”.
